This is an account of results in PMC9097638, “Mechanism underlying the carotenoid accumulation in shaded tea leaves” (Food Chemistry: X, 2022).

For one assay, the target named is T1, CsLCYB (Camellia sinensis, UniProt A0A0B4SX47).
T1 construct: gene lcyb; full-length cDNA subcloned into y2 plasmid; expressed in E. coli DH5alpha carrying pAC-LYC; not purified
T1 sequence (A0A0B4SX47 1-504): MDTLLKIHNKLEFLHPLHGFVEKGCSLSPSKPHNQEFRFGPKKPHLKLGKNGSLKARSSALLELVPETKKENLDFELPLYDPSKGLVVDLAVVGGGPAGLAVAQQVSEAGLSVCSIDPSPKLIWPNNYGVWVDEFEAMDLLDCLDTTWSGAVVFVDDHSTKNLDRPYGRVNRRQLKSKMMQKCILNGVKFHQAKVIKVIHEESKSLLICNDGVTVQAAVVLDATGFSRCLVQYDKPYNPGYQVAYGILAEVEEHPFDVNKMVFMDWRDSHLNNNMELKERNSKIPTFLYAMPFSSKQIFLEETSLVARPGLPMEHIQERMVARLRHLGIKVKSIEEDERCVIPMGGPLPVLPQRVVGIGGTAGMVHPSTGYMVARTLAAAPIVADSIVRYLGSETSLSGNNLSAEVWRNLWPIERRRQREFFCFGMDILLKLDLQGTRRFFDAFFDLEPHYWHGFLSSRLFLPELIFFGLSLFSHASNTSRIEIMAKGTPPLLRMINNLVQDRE
In words: E. coli pAC-LYC complementation, HPLC of pigments. Format: cell-based. The note with it: lycopene made in the cells; product beta-carotene; 30 °C, 48 h, darkness.

A further assay deals with T2, CsLCYE (Camellia sinensis, UniProt A0A7J7G232).
T2 construct: gene HYC85_025912; full-length cDNA subcloned into y2 plasmid; expressed in E. coli DH5alpha carrying pAC-LYC; not purified
T2 sequence (A0A7J7G232 1-531 limits assumed): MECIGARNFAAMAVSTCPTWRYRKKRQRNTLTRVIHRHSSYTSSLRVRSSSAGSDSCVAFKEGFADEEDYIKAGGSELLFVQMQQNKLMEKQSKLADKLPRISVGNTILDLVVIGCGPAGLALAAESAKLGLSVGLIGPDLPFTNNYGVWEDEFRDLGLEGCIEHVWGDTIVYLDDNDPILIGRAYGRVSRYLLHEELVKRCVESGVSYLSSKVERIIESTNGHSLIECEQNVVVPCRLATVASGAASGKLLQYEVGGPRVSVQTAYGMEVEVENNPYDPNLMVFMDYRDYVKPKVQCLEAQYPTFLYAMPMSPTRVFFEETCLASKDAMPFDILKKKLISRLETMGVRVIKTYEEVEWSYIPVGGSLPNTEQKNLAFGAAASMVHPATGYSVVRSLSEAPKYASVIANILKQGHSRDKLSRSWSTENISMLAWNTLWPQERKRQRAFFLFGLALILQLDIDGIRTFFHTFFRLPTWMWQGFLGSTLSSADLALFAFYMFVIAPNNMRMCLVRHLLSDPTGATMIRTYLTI
The assay can be described thus: E. coli pAC-LYC complementation, HPLC of pigments. The format is cell-based. The note with it: lycopene made in the cells; product delta-carotene; 30 °C, 48 h, darkness.

As to `CC(C)=CCC/C(C)=C/C=C/C(C)=C/C=C/C(C)=C/C=C/C=C(C)/C=C/C=C(C)/C=C/C=C(\C)CCC=C(C)C` [lycopene], the “E. coli pAC-LYC complementation, HPLC of pigments” value at CsLCYB was “CsLCYB was able to convert the lycopene produced by the cells to β-carotene”; at CsLCYE, “monocyclic δ-carotene and lycopene were detected, implying that CsLCYE is a functional lycopene ε-cyclase”.
